Experimental data published in ChEMBL document CHEMBL1201862, “PubChem BioAssay data set” (2004).
Active and inactive are the calls of the source.

How the values were obtained:
cells [1] = assay type: functional, cell-based
cells [2] = assay type: functional, cell-based; remark: listed apart in the source
Fatty acid synthase [3] = target: T1, Fatty acid synthase (Homo sapiens, UniProt P49327); experiment: inhibition of human FAS-TE enzyme activity – biochemical, kinetic fluorescence intensity, dose response (AID 624326); assay type: functional;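 further: rate of fluorescence rise from hydrolysis of a fluorogenic O-methyl fluorescein ester substrate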
Fatty acid synthase [4] = target: T1, Fatty acid synthase; experiment: inhibition of human FAS-TE enzyme activity – biochemical, endpoint fluorescence intensity, uHTS hits, dose response (AID 624327); assay type: functional;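 further: fluorescence from hydrolysis of an O-methyl fluorescein acyl ester substrate by the enzyme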
[5] = target: Dual specificity tyrosine-phosphorylation-regulated kinase 1A (Rattus norvegicus, UniProt Q63470); assay type: biochemical, Homo sapiens
[6] = target: Heat shock protein HSP 90-alpha (Homo sapiens, UniProt P07900); assay type: functional, organism-based
[7] = A Cell Based Secondary Assay To Explore Cytotoxicity of Compounds that Sensitize Mycobacterium Tuberculosis to Beta-Lactam Antibiotics.; assay type: functional
[8] = viability of uninfected HEp-2 cells – cell-based, HTS, cytotoxicity control for RSV inhibitor project, dose response (AID 2410); assay type: functional; details: human respiratory syncytial virus
[9] = target: Nuclear receptor subfamily 5 group A member 2 (Homo sapiens, UniProt O00482); assay type: functional, cell-based;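 further: HEK293T cells transfected with LRH-1 and a StAR promoter luciferase reporter; potency for inhibitors that lower LRH-1 driven reporter light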
[10] = nonselective StAR promoter luciferase inhibitors – cell-based, luminescence, luciferase reporter, counter-screen for LRH-1 inverse agonist project, dose response (AID 651969); assay type: functional
Steroidogenic factor 1 = Steroidogenic factor 1 (Homo sapiens, UniProt Q13285); experiment: Counterscreen for inverse agonists of the liver receptor homolog-1 (LRH-1; NR5A2): Luminescence-based cell-based high throughput dose response assay to identify inverse agonists of the Steroidogenic Factor 1 Nuclear Receptor (SF1; NR5A1).; assay type: functional
[11] = intracellular Trypanosoma cruzi inhibitors in host cells – cell-based, plate reader, cherry-pick samples, set 3, dose response (AID 651818); assay type: functional;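 further: compounds incubated with infected cells for about four days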
[12] = blockers of HIV-1 ZM109 envelope-driven cell-cell fusion – HeLa effector, CEM target cells, luciferase, cherry-pick, dose response (AID 652058); assay type: functional, cell-based;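 further: luciferase signal from HIV-1 Env mediated cell-cell fusion of effector and target cells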
[13] = blockers of HIV-1 envelope-mediated cell-cell fusion – cherry-pick, dose response (AID 652057); assay type: functional, cell-based
[14] = target: T2, RNA-binding protein pos-1 (Caenorhabditis elegans, UniProt G5EF15); experiment: disruptors of C. elegans POS-1 RNA interaction – biochemical, fluorescence polarization, dose response (AID 1964);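 further: purified POS-1 fused to maltose binding protein made in E. coli; potency of compounds blocking POS-1 binding to fluorescent RNA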
T2 sequence (G5EF15 whole entry): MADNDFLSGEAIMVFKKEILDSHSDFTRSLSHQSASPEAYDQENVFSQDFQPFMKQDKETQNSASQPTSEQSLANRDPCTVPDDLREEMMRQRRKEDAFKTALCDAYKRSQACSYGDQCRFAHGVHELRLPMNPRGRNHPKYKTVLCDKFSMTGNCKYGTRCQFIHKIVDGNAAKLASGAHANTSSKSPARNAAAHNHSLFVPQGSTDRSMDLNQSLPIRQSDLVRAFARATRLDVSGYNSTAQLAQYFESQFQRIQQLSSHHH

Large T antigen = Large T antigen (Simian virus 40, UniProt P03070); assay type: functional, Betapolyomavirus macacae;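 further: Confirmatory-stage PubChem screen for compounds that inhibit SV40 T antigen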
[15] = target: Glucose-6-phosphate 1-dehydrogenase (Homo sapiens, UniProt P11413); experiment: inhibition of Homo sapiens G6PD, dose series – biochemical, fluorescence, selectivity assay for P. falciparum G6PD inhibitor project, dose response (AID 504792); assay type: functional
[16] = target: T3, Zinc finger protein mex-5 (Caenorhabditis elegans, UniProt Q9XUB2); experiment: potency of MEX-5 RNA-binding blockers – biochemical, C. elegans, fluorescence polarization, dose response (AID 1960)
T3 sequence (Q9XUB2 whole entry): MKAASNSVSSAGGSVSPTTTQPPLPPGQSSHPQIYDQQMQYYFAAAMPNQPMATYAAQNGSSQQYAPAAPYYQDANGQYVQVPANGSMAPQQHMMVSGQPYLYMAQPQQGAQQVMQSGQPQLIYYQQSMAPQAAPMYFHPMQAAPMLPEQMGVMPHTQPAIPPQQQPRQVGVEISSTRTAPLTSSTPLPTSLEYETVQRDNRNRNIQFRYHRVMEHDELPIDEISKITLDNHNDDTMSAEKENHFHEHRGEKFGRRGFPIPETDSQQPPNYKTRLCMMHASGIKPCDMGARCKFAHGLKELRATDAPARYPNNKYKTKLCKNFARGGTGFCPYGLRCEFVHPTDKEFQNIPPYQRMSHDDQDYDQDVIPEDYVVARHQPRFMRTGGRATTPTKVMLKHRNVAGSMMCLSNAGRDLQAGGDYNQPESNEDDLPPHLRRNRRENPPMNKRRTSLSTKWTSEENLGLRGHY

T1 sequence (P49327 whole entry): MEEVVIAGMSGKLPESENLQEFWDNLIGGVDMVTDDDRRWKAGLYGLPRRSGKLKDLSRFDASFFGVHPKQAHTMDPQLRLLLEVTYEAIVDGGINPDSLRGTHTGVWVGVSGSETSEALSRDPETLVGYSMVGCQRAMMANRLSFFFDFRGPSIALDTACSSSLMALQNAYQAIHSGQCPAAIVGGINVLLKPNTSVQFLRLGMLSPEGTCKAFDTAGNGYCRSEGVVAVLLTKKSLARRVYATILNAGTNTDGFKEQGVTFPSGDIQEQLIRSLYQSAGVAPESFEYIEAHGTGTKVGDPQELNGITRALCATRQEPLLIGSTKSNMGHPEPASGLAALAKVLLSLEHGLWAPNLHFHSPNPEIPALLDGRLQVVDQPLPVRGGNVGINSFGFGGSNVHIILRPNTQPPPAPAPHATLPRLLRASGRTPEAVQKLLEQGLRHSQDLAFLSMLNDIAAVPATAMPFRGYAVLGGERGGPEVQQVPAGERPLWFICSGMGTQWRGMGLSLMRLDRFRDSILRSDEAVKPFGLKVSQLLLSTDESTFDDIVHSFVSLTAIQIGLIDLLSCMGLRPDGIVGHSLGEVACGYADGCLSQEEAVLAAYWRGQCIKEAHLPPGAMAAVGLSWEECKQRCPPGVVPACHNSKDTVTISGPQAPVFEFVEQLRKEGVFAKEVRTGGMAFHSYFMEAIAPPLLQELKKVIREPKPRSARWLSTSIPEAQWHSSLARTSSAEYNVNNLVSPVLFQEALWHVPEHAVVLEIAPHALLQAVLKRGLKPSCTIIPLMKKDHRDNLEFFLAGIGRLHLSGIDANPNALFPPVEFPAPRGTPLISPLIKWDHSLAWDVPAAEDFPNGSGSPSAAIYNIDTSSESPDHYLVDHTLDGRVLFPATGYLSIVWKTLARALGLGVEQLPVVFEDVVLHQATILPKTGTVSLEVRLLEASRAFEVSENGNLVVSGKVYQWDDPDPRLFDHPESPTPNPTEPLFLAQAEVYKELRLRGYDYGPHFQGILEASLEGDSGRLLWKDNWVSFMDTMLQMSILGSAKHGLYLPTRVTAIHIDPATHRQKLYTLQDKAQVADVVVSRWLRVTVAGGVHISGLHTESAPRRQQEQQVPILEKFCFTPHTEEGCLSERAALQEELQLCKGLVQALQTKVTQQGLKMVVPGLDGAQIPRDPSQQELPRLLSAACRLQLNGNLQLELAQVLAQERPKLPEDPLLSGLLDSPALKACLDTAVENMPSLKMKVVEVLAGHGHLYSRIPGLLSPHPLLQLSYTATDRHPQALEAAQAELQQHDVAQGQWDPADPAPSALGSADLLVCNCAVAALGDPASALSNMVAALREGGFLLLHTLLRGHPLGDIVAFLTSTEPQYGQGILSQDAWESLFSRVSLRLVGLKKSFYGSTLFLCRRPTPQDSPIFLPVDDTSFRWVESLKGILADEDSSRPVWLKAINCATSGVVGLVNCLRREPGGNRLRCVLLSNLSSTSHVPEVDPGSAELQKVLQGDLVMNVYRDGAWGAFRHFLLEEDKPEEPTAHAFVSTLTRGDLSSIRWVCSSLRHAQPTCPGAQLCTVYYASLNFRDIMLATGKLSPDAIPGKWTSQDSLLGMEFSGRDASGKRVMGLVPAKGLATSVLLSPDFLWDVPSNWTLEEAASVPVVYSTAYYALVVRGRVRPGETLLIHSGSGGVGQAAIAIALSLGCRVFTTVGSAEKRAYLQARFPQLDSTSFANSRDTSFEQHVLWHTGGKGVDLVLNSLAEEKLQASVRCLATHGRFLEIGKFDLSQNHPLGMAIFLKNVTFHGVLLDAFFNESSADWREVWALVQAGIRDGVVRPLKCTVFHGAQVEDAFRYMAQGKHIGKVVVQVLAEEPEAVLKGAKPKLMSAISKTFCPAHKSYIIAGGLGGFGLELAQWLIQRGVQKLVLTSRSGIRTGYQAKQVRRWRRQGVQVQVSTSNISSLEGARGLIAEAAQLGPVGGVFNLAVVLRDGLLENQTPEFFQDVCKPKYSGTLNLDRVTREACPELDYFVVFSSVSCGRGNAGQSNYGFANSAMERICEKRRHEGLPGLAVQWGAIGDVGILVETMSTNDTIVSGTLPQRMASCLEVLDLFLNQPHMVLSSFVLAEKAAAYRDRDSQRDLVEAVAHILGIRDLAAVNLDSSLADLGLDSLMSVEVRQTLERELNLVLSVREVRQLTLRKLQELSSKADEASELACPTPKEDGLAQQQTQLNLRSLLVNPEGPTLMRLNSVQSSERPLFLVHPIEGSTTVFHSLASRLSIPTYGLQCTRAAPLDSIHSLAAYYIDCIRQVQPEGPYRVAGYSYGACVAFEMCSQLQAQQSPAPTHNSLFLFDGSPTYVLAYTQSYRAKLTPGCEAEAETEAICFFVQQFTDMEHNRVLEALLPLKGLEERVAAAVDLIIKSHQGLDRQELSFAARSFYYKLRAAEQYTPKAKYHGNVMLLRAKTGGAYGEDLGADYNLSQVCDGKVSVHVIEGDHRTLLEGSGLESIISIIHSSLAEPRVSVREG
Sequence of Steroidogenic factor 1 (Q13285 whole entry): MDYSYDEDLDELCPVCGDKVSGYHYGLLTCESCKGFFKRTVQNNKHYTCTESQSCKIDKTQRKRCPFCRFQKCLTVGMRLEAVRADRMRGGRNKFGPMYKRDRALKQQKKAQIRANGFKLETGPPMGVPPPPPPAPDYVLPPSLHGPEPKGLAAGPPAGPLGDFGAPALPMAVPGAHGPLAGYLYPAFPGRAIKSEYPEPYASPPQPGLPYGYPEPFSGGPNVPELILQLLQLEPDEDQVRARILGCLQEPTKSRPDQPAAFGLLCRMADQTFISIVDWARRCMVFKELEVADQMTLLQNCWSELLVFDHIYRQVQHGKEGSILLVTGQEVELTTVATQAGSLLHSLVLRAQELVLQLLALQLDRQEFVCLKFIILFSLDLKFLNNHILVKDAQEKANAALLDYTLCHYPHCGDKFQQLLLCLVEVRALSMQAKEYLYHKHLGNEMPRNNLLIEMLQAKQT
Sequence of Nuclear receptor subfamily 5 group A member 2 (O00482 whole entry): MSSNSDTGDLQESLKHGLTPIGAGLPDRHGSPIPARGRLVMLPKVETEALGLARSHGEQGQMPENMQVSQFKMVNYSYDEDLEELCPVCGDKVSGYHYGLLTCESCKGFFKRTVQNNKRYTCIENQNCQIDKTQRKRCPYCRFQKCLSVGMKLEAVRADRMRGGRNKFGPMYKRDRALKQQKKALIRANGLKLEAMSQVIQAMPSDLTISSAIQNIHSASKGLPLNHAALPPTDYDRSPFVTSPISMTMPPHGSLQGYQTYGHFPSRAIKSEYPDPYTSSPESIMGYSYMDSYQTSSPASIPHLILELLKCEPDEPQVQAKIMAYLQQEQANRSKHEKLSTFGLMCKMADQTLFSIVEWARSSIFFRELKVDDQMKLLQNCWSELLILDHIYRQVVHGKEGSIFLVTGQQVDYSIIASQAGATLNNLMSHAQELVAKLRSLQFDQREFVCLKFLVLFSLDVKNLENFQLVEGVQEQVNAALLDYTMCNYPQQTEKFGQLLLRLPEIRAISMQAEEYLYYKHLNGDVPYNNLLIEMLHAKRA
Sequence of Large T antigen (P03070 whole entry): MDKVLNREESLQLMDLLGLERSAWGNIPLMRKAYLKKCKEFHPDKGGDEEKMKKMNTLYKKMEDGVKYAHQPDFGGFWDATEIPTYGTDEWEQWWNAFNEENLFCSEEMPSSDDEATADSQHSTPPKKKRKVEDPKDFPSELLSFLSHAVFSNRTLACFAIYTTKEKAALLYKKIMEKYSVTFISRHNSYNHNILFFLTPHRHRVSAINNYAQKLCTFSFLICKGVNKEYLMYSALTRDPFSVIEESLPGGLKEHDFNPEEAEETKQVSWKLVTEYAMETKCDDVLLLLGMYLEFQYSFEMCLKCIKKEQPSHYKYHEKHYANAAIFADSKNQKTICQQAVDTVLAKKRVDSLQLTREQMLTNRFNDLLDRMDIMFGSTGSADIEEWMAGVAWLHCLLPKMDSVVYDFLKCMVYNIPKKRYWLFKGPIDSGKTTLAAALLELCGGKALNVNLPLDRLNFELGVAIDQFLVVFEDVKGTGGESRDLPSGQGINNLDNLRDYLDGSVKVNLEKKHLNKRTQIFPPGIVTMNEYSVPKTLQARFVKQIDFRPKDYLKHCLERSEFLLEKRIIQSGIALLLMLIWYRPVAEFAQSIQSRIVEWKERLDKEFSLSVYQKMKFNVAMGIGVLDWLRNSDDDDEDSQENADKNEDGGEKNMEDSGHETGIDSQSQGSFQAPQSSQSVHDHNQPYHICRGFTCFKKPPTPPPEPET
Sequence of Glucose-6-phosphate 1-dehydrogenase (P11413 whole entry): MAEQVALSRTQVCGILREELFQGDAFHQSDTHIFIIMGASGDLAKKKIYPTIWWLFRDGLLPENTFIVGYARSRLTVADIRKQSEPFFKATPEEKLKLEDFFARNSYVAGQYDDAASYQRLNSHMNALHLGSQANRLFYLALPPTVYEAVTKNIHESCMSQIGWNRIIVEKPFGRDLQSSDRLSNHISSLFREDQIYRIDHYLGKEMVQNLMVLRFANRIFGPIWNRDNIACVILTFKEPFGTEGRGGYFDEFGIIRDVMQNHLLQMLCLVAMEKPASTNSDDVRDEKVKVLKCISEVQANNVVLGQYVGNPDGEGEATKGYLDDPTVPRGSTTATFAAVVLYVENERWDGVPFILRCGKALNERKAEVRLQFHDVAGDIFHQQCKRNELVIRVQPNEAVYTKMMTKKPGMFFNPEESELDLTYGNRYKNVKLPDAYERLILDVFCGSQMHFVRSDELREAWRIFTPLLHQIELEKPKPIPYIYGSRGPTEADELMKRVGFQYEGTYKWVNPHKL

Cc1cccc(CCNC(=O)Cn2ncc3c4cc(C)ccc4nc-3c2O)c1
EC50 (cells [1]): > 350 µM (not active) | EC50 (cells [2]): > 350 µM (not active)

CC(C)(C)c1ccc(/C=C2\CCn3c2nc2cc(C(=O)O)ccc2c3=O)cc1
IC50 (Fatty acid synthase [3]): 3 µM (active) | IC50 (Fatty acid synthase [4]): 3.26 µM (active)

NNc1nc2c(Cl)ccc(Cl)c2s1
AC50 [5]: 0.905 µM (active)

O=C(/C=C/c1ccccn1)c1cc(Br)ccc1O
AC50 [6]: 2.03 µM (active) | CC50 [7]: > 40 µM (active)

O=C(CCn1c(=O)c2ccccc2n(Cc2cccc([N+](=O)[O-])c2)c1=O)N1CCc2ccccc2C1
IC50 (Fatty acid synthase [3]): 1.17 µM (active) | IC50 (Fatty acid synthase [4]): 1.26 µM (active) | CC50 [8]: > 50 µM (active)

CCOc1ccc(OCCN2C(=O)NC(Cc3c[nH]c4ccccc34)C2=O)cc1 (configuration not stated)
IC50 [9]: 4.18 µM (active) | IC50 [10]: 35.9 µM (inactive) | IC50 (Steroidogenic factor 1): 5.29 µM (active)

COc1ccc(CCn2c(C)cc(C(=O)COC(=O)c3ccc(O)cc3O)c2C)cc1
IC50 [9]: 35.9 µM (inactive) | IC50 [10]: 35.9 µM (inactive) | IC50 (Steroidogenic factor 1): 5.82 µM (active)

COc1ccc(CCNC(=O)COC(=O)c2cc(Cl)nc(Cl)c2)cc1
IC50 [9]: 8.32 µM (active) | IC50 [10]: 35.9 µM (inactive) | IC50 (Steroidogenic factor 1): 3.23 µM (active)

Cc1ccc(NC(=O)CSc2nc3nc(O)cc(O)c3s2)c(Br)c1
IC50 [9]: 35.9 µM (inactive) | IC50 [10]: 35.9 µM (inactive) | IC50 (Steroidogenic factor 1): 9.35 µM (active)

CC(=O)Nc1cc(-c2ccc(S(C)(=O)=O)cc2)cn2c(-c3ccc(F)cc3)cnc12
IC50 [9]: 8.24 µM (active) | IC50 [10]: 23.7 µM (inactive) | IC50 (Steroidogenic factor 1): 3.11 µM (active)

C[C@H](CO)N1C[C@H](C)[C@@H](CN(C)Cc2ccc(C(F)(F)F)cc2)Oc2c(NC(=O)c3nc4ccccc4s3)cccc2C1=O
AC50 [11]: 1.05 µM (active)

Cc1ccc(S(=O)(=O)Nc2cccc3c2O[C@H](CN(C)Cc2ccc(C(=O)Nc4ccccc4N)cc2)[C@H](C)CN([C@H](C)CO)C3=O)cc1
AC50 [11]: 2.26 µM (active)

C[C@@H]1CCCCO[C@@H](CN(C)Cc2ccc(C(F)(F)F)cc2)[C@@H](C)CN([C@H](C)CO)C(=O)c2cc(NS(=O)(=O)c3ccc(Cl)cc3)ccc2O1
AC50 [11]: 3.01 µM (active)

C[C@H]1CN([C@@H](C)CO)C(=O)c2cccc(NS(=O)(=O)c3ccccc3)c2O[C@H]1CN(C)Cc1ccc(C(=O)Nc2ccccc2N)cc1
AC50 [11]: 3.48 µM (active)

C[C@@H]1CN([C@H](C)CO)C(=O)Cc2cc(NC(=O)Nc3ccc(C(F)(F)F)cc3)ccc2O[C@H]1CN(C)Cc1ccccc1
AC50 [11]: 4.06 µM (active)

C[C@@H]1CN([C@@H](C)CO)S(=O)(=O)c2ccc(C3=CCCC3)cc2O[C@@H]1CN(C)C(=O)C1CCOCC1
AC50 [12]: 10.2 µM (active) | AC50 [13]: 59 µM (active)

O=C(CCc1ccc(O)c(O)c1)N/N=C/c1cc2c(cc1[N+](=O)[O-])OCO2
EC50 [14]: 24 µM (active) | IC50 (Large T antigen): 13.8 µM (active) | IC50 [15]: > 80 µM (inactive) | EC50 [16]: 6.35 µM (active)

O=c1c(/N=N/c2ccc(O)cc2)c(-c2ccccc2)[nH]n1-c1ccc([N+](=O)[O-])cc1
CC50 [7]: 17.7 µM (active)
